Test results as given in patent US9637483B2, “Heterocyclic compound” (TAKEDA PHARMACEUTICAL COMPANY LIMITED, priority 2013, dated 2017).

Key:
Type in all cases: biochemical
JAK1 = target: T1, JAK1 (Homo sapiens, UniProt P23458); experiment: JAK1 enzyme inhibition test (LANCE method); settings: 1 μM test compound; read-out: JAK1 enzyme inhibitory activity (%, 1 μM)
T1 construct: purchased Invitrogen
Method in brief: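 TR-FRET (LANCE) with ULight-JAK1 peptide (300 nM working solution) and ATP (150 μM working solution) in HEPES pH 7.5, MgCl2, EGTA, DTT buffer; 1 h at room temperature. EDTA stop plus Eu-anti-phosphotyrosine antibody, 665 nm read after 1 h. Inhibition relative to enzyme-free wells as 100%.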

JAK2 = target: T2, JAK2 (Homo sapiens, UniProt O60674); experiment: JAK2 enzyme inhibition test (LANCE method); settings: 1 μM test compound; read-out: JAK2 enzyme inhibitory activity (%, 1 μM)
T2 construct: purchased Invitrogen
Method in brief: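 Recombinant JAK2 (6 ng/mL solution) phosphorylated ULight-JAK1 peptide (300 nM solution) with ATP (45 μM solution) in pH 7.5 HEPES/MgCl2/DTT buffer for 1 hr at room temperature. After EDTA stop and europium anti-phosphotyrosine antibody for 1 hr, TR-FRET read at 665 nm; inhibition relative to enzyme-free wells as 100%.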

TYK2 = target: T3, TYK2 (Homo sapiens, UniProt P29597); experiment: TYK2 enzyme inhibition test (LANCE method); settings: 1 μM test compound; read-out: TYK2 enzyme inhibitory activity (%, 1 μM)
T3 construct: purchased Invitrogen
Method in brief: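 Recombinant TYK2 (375 ng/mL working solution) with ULight-JAK1 peptide (300 nM working solution) and ATP (30 μM working solution) in HEPES pH 7.5 buffer with MgCl2, EGTA, DTT, Tween20, BSA, reacted 1 h at RT. EDTA-stopped, Eu-anti-phosphotyrosine TR-FRET read at 665 nm; inhibition relative to enzyme-free wells as 100%.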

JAK3 = target: T4, JAK3 (Homo sapiens, UniProt P52333); experiment: JAK3 enzyme inhibition test (LANCE method); settings: 1 μM test compound; read-out: JAK3 enzyme inhibitory activity (%, 1 μM)
T4 construct: purchased Invitrogen
T4 sequence (P52333 1-1124): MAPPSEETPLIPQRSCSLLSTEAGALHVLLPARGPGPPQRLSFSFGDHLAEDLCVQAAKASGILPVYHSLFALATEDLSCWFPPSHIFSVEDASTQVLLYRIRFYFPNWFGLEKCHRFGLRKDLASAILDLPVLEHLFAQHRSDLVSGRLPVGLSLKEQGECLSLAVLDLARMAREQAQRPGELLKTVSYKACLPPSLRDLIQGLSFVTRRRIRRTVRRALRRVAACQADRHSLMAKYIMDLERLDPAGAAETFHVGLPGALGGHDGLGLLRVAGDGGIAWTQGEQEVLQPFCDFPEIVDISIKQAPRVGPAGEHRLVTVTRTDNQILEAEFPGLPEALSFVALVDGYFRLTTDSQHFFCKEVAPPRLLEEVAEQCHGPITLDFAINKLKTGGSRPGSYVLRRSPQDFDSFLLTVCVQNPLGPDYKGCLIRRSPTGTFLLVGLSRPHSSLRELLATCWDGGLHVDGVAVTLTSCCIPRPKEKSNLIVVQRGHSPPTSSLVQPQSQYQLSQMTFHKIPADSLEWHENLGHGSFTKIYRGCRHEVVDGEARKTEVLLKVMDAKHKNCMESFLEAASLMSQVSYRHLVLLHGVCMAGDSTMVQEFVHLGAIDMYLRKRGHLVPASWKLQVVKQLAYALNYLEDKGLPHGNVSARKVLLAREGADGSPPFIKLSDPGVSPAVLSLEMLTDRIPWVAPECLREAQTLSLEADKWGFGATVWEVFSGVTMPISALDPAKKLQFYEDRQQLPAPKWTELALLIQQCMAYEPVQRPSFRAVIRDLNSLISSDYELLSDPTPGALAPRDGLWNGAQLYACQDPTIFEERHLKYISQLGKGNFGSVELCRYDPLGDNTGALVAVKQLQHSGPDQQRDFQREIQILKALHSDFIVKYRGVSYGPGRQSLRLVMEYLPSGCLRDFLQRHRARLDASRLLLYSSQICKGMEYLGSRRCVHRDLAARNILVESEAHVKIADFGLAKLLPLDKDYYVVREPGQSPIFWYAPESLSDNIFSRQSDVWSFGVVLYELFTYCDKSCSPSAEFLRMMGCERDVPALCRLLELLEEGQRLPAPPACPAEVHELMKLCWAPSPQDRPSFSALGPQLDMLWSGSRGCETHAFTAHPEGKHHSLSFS
Method in brief: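 Recombinant JAK3 (12 ng/mL solution) with ULight-JAK1 peptide (300 nM solution) and ATP (15 μM solution) in HEPES pH 7.5 buffer, 1 h at room temperature. EDTA stop with Eu-anti-phosphotyrosine antibody; TR-FRET at 665 nm. Inhibition relative to enzyme-free wells as 100%.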

T2 sequence (O60674 whole entry): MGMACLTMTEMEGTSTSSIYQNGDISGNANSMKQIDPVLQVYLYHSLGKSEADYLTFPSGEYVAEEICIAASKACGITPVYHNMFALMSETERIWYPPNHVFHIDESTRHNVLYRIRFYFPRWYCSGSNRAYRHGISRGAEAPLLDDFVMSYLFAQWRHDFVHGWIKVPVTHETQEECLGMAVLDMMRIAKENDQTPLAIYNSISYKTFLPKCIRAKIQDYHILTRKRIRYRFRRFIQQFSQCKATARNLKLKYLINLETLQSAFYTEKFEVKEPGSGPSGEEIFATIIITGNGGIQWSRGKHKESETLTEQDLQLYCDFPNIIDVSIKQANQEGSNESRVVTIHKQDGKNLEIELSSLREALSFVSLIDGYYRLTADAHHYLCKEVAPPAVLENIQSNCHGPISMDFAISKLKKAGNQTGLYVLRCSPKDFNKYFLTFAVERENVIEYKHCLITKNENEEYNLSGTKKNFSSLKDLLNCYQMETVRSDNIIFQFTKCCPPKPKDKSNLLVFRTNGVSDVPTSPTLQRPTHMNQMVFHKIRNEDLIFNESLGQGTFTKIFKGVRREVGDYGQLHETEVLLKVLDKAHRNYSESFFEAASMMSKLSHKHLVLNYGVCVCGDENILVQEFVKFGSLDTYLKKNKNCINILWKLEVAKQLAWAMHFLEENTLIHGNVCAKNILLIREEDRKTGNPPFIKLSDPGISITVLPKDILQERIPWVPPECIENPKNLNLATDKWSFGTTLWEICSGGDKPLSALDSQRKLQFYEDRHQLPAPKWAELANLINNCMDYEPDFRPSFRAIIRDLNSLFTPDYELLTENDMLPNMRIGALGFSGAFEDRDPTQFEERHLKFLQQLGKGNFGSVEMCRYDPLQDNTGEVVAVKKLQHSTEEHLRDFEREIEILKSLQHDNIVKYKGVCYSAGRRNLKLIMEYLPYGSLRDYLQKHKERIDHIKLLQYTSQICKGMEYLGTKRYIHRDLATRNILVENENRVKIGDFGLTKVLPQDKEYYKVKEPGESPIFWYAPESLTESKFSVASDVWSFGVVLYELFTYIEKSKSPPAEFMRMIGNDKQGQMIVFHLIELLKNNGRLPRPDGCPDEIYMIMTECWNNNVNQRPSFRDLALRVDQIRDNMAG
T1 sequence (P23458 whole entry): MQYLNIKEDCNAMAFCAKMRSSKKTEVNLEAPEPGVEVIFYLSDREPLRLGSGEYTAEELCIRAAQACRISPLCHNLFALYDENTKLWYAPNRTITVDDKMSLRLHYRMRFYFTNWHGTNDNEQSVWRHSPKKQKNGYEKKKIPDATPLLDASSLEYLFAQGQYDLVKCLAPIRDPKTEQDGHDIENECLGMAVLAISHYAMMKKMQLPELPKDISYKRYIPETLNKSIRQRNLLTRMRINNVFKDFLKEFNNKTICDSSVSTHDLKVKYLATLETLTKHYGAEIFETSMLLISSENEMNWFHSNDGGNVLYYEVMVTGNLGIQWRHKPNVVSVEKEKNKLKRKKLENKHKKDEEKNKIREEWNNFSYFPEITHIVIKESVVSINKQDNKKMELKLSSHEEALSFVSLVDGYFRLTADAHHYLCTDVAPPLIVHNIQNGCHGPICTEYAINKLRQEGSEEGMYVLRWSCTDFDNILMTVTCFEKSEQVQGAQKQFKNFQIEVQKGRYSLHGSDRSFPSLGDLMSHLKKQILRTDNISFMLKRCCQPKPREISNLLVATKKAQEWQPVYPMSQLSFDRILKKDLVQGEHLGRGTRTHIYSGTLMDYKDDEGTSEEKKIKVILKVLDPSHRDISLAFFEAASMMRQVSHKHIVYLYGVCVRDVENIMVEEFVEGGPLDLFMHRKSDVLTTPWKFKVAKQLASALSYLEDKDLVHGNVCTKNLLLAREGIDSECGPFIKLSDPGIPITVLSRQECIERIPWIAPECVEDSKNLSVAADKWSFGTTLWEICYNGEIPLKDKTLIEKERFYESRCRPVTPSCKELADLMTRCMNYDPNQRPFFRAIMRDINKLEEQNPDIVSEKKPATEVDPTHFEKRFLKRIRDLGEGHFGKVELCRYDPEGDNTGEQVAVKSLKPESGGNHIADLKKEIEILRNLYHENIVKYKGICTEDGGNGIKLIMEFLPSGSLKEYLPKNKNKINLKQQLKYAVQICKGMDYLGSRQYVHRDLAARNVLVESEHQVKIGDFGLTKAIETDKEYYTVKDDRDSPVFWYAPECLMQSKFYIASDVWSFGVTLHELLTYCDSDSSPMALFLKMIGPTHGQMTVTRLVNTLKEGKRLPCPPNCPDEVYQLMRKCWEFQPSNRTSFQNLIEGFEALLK
T3 sequence (P29597 whole entry): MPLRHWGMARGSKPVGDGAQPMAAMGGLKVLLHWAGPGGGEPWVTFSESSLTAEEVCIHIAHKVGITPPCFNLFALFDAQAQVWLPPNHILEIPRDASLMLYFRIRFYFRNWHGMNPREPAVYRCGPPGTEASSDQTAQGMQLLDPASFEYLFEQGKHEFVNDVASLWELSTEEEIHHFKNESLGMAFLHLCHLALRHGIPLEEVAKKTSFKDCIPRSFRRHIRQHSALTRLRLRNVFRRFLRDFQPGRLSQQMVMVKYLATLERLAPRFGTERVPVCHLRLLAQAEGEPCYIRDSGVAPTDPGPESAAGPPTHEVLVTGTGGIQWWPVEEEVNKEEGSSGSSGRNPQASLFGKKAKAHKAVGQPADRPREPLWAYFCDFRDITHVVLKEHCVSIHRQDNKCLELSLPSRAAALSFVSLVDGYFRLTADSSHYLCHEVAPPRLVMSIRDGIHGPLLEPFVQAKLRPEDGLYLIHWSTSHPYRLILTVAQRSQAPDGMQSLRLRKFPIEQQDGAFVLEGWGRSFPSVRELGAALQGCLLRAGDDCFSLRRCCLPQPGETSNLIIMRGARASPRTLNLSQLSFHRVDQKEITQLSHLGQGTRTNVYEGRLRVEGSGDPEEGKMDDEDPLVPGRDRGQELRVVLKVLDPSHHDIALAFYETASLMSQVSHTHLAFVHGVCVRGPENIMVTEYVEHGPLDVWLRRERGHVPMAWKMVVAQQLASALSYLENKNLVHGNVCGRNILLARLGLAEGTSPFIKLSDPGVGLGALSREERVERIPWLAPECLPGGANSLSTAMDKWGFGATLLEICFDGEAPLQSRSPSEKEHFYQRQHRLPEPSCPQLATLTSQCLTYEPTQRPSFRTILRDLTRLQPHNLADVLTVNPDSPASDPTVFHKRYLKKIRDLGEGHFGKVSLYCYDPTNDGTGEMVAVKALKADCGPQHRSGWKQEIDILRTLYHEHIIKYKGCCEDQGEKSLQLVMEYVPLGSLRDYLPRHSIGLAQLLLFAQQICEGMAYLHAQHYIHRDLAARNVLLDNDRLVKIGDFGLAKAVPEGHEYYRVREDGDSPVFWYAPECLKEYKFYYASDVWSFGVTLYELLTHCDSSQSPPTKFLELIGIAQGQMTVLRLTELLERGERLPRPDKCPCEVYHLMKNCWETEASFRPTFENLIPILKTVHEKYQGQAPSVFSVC

| Compound | inhibition at 1 µM (JAK1) [%] | inhibition at 1 µM (JAK2) [%] | inhibition at 1 µM (TYK2) [%] | inhibition at 1 µM (JAK3) [%] |
| --- | --- | --- | --- | --- |
| CC(C)[C@H](C)n1cc(-c2cc(C(F)(F)F)n(C)n2)c2[nH]nc(N)c2c1=O [Example 42, 3-amino-5-((2S)-3-methylbutan-2-yl)-7-(1-methyl-5-(trifluoromethyl)-1H-pyrazol-3-yl)-1,5-dihydro-4H-pyrazolo[4,3-c]pyridin-4-one] | 96 | 96 | 98 | 99 |
| CC(C)[C@H](C)n1cc(-c2cc(C3CC3)n(C)n2)c2[nH]nc(N)c2c1=O [Example 43, 3-amino-7-(5-cyclopropyl-1-methyl-1H-pyrazol-3-yl)-5-((2S)-3-methylbutan-2-yl)-1,5-dihydro-4H-pyrazolo[4,3-c]pyridin-4-one] | 97 | 97 | 100 | 99 |
| CC(C)[C@H](C)n1cc(-c2cc(CN3CCCC3)n(C)n2)c2[nH]nc(N)c2c1=O [Example 44, 3-amino-5-((2S)-3-methylbutan-2-yl)-7-(1-methyl-5-(pyrrolidin-1-ylmethyl)-1H-pyrazol-3-yl)-1,5-dihydro-4H-pyrazolo[4,3-c]pyridin-4-one] | 90 | 96 | 101 | 99 |
| CC(C)[C@H](C)n1cc(-c2cc(C(=O)N3CCS(=O)(=O)CC3)n(C)n2)c2[nH]nc(N)c2c1=O [Example 45, 3-amino-7-(5-((1,1-dioxidothiomorpholin-4-yl)carbonyl)-1-methyl-1H-pyrazol-3-yl)-5-((2S)-3-methylbutan-2-yl)-1,5-dihydro-4H-pyrazolo[4,3-c]pyridin-4-one] | 98 | 99 | 100 | 99 |
| COCCN(C)C(=O)c1cc(-c2cn([C@@H](C)C(C)C)c(=O)c3c(N)n[nH]c23)nn1C [Example 46, 3-(3-amino-5-((2S)-3-methylbutan-2-yl)-4-oxo-4,5-dihydro-1H-pyrazolo[4,3-c]pyridin-7-yl)-N-(2-methoxyethyl)-N,1-dimethyl-1H-pyrazole-5-carboxamide] | 95 | 98 | 99 | 99 |
| CC(C)[C@H](C)n1cc(-c2cc(CN3CCS(=O)(=O)CC3)n(C)n2)c2[nH]nc(N)c2c1=O [Example 47, 3-amino-7-(5-((1,1-dioxidothiomorpholin-4-yl)methyl)-1-methyl-1H-pyrazol-3-yl)-5-((2S)-3-methylbutan-2-yl)-1,5-dihydro-4H-pyrazolo[4,3-c]pyridin-4-one] | 93 | 98 | 99 | 100 |

Continued, values first:

| inhibition at 1 µM (JAK1) [%] | inhibition at 1 µM (JAK2) [%] | inhibition at 1 µM (TYK2) [%] | inhibition at 1 µM (JAK3) [%] | Compound |
| --- | --- | --- | --- | --- |
| 94 | 97 | 99 | 100 | CC(C)[C@H](C)n1cc(-c2cc(N3CCCCC3=O)n(C)n2)c2[nH]nc(N)c2c1=O [Example 48, 3-amino-5-((2S)-3-methylbutan-2-yl)-7-(1-methyl-5-(2-oxopiperidin-1-yl)-1H-pyrazol-3-yl)-1,5-dihydro-4H-pyrazolo[4,3-c]pyridin-4-one] |
| 96 | 97 | 99 | 100 | CC(C)[C@H](C)n1cc(-c2cc(N3CCOCC3=O)n(C)n2)c2[nH]nc(N)c2c1=O [Example 49, 3-amino-5-((2S)-3-methylbutan-2-yl)-7-(1-methyl-5-(3-oxomorpholin-4-yl)-1H-pyrazol-3-yl)-1,5-dihydro-4H-pyrazolo[4,3-c]pyridin-4-one] |
| 96 | 99 | 99 | 100 | CC(C)[C@H](C)n1cc(-c2cc(C(=O)N(C)C3CCCC3)n(C)n2)c2[nH]nc(N)c2c1=O [Example 50, 3-(3-amino-5-((2S)-3-methylbutan-2-yl)-4-oxo-4,5-dihydro-1H-pyrazolo[4,3-c]pyridin-7-yl)-N-cyclopentyl-N,1-dimethyl-1H-pyrazole-5-carboxamide] |
| 97 | 97 | 99 | 97 | CC(=O)NCC(C)(C)c1cc(-c2cn([C@@H](C)C(C)C)c(=O)c3c(N)n[nH]c23)nn1C [Example 51, N-(2-(3-(3-amino-5-((2S)-3-methylbutan-2-yl)-4-oxo-4,5-dihydro-1H-pyrazolo[4,3-c]pyridin-7-yl)-1-methyl-1H-pyrazol-5-yl)-2-methylpropyl)acetamide] |
| 96 | 99 | 100 | 99 | CC(C)[C@H](C)n1cc(-c2cc(CN3CCCC3=O)n(C)n2)c2[nH]nc(N)c2c1=O [Example 52, 3-amino-5-((2S)-3-methylbutan-2-yl)-7-(1-methyl-5-((2-oxopyrrolidin-1-yl)methyl)-1H-pyrazol-3-yl)-1,5-dihydro-4H-pyrazolo[4,3-c]pyridin-4-one] |
| 95 | 96 | 98 | 99 | CC(C)[C@H](C)n1cc(-c2cc(C(=O)N(C)C3CCOCC3)n(C)n2)c2[nH]nc(N)c2c1=O [Example 53, 3-(3-amino-5-((2S)-3-methylbutan-2-yl)-4-oxo-4,5-dihydro-1H-pyrazolo[4,3-c]pyridin-7-yl)-N,1-dimethyl-N-(tetrahydro-2H-pyran-4-yl)-1H-pyrazole-5-carboxamide] |
| 98 | 98 | 98 | 99 | CC(C)[C@H](C)n1cc(-c2cc(N3CCOC3=O)n(C)n2)c2[nH]nc(N)c2c1=O [Example 54, 3-amino-5-((2S)-3-methylbutan-2-yl)-7-(1-methyl-5-(2-oxo-1,3-oxazolidin-3-yl)-1H-pyrazol-3-yl)-1,5-dihydro-4H-pyrazolo[4,3-c]pyridin-4-one] |
| 98 | 98 | 99 | 99 | CC(C)[C@H](C)n1cc(-c2cc(N3CCCC3=O)n(C)n2)c2[nH]nc(N)c2c1=O [Example 55, 3-amino-5-((2S)-3-methylbutan-2-yl)-7-(1-methyl-5-(2-oxopyrrolidin-1-yl)-1H-pyrazol-3-yl)-1,5-dihydro-4H-pyrazolo[4,3-c]pyridin-4-one] |
| 70 | 94 | 98 | 94 | CC(C)[C@H](C)n1cc(-c2cc(C(C)(C)C(=O)N(C)C)n(C)n2)c2[nH]nc(N)c2c1=O [Example 56, 2-(3-(3-amino-5-((2S)-3-methylbutan-2-yl)-4-oxo-4,5-dihydro-1H-pyrazolo[4,3-c]pyridin-7-yl)-1-methyl-1H-pyrazol-5-yl)-N,N,2-trimethylpropanamide] |
